{"source": "EPA's ToxValDB 9.5 (doi:10.2903/j.efsa.2014.3736)", "key": {"Daphnia magna": {"test_system": "Daphnia magna", "conditions": "chronic/long-term; duration: 21 days; mortality"}, "Tagia sp.": {"test_system": "Tagia sp.", "conditions": "acute; duration: 14 days; mortality"}, "Bibionidae": {"test_system": "Bibionidae", "conditions": "chronic/long-term; duration: 23 days; other"}, "[1]": {"conditions": "short-term; duration: 28 days; no effects"}, "Plant": {"test_system": "Plant", "conditions": "chronic/long-term; duration: 28 days; frond number"}, "Colinus virginianus": {"test_system": "Colinus virginianus", "conditions": "acute, oral, mortality"}, "Anas platyrhynchos": {"test_system": "Anas platyrhynchos", "conditions": "reproductive"}}}
{"smiles": "C#CCN1C(=O)COc2cc(F)c(N3C(=O)C4=C(CCCC4)C3=O)cc21", "note": "[Flumioxazin]", "values": [{"measurement": "NOEC", "setting": "Daphnia magna", "result": 0.1, "unit": "mg/L"}, {"measurement": "LC50", "setting": "Tagia sp.", "result": "> 982", "unit": "mg/kg"}, {"measurement": "NOEC", "setting": "Bibionidae", "result": 0.73, "unit": "mg/kg"}, {"measurement": "NOEC", "setting": "[1]", "result": 0.15, "unit": "mg/L"}, {"measurement": "LC50", "setting": "Oncorhynchus mykiss; acute, duration: 96 hours, mortality", "result": 2.3, "unit": "µg/mL"}, {"measurement": "NOEC", "setting": "Oncorhynchus mykiss; chronic/long-term, duration: 21 days, growth", "result": 0.37, "unit": "mg/L"}, {"measurement": "NOEC", "setting": "Plant", "result": 6.3, "unit": "µg/L"}, {"measurement": "LD50", "setting": "Colinus virginianus; diet", "result": "> 1510", "unit": "mg/kg-day"}, {"measurement": "LD50", "setting": "Colinus virginianus", "result": "> 2250", "unit": "mg/kg-day"}, {"measurement": "NOEL", "setting": "Anas platyrhynchos", "result": 34.3, "unit": "mg/kg-day"}, {"measurement": "LD50", "setting": "Rattus norvegicus; acute, mortality", "result": "> 5000", "unit": "mg/kg-day"}, {"measurement": "NOAEL", "setting": "Rattus norvegicus; chronic, duration: 2 years, hematological", "result": 1.8, "unit": "mg/kg-day"}, {"measurement": "NOAEL", "setting": "Rattus norvegicus; developmental, oral, gavage, development", "result": 10, "unit": "mg/kg-day"}, {"measurement": "NOAEL", "setting": "Rattus norvegicus; reproduction developmental, growth", "result": 7.5, "unit": "mg/kg-day"}, {"measurement": "NOAEL", "setting": "Rattus norvegicus; subchronic, duration: 90 days, oral, hematological", "result": 2.2, "unit": "mg/kg-day"}]}
